Results on 31 molecules are retold here after US6110962A, “11-aryl-benzo[B]naphtho[2,3-D]furans and 11-aryl-benzo[B]naphtho[2,3-D]thiophenes useful in the treatment of insulin resistance and hyperglycemia” (American Home Products Corporation, priority 1999, dated 2000).

One assay deals with T1, Human recombinant PTP1B (Homo sapiens, UniProt P18031).
T1 construct: made in house
T1 sequence (P18031 1-435): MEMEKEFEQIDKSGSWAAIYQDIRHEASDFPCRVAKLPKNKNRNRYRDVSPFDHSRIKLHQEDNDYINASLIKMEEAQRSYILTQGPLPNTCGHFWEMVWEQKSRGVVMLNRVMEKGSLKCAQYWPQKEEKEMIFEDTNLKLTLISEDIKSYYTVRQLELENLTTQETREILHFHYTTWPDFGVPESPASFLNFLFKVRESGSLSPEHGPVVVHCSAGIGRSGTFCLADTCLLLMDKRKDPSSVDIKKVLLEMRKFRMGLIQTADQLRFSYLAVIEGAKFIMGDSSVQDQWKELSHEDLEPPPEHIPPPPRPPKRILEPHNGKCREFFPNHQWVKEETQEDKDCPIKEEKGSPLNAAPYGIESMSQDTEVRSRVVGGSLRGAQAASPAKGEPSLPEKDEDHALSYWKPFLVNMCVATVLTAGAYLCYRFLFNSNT
The assay is classed as biochemical.

Assay [1] concerns rat hepatic microsomal PTPases. Conditions: PTPase activity, compound at 50 μM.

pIC50: −log10 of the molar value. Read-outs that look alike come from different tables or passages of the source.

Broadly, the pIC50 is −log10 of the IC50, conventionally taken in molar units. On to `O=P(O)(O)COc1c(Br)cc(-c2c3ccccc3c(Br)c3sc4ccccc4c23)cc1Br` [Example 162, [2,6-Dibromo-4-(6-bromo-benzo[b]naphtho[2,3-d]thiophen-11-yl)-phenoxymethyl]-phosphonic acid], for which the pIC50 on Human recombinant PTP1B (read-out: IC50) is 6.84. For the same molecule, the “% Change from Control” value in assay [1] is -60.67%.

As to `C[C@H](Oc1cc(-c2c3ccccc3c(Br)c3sc4ccccc4c23)ccc1Br)C(=O)O` [Example 143, (S)-2-[2-Bromo-5-(6-bromo-benzo[b]naphtho[2,3-d]thiophen-11-yl)-phenoxyl]-propionic acid], on Human recombinant PTP1B (read-out: IC50), the pIC50 is 5.93. Also, the “% Change from Control” value in assay [1] is -76.98%.

Turning to `O=C(O)COc1cc(-c2c3ccccc3c(Br)c3sc4ccccc4c23)ccc1Br` [Example 91, [2-Bromo-5-(6-bromo-benzo[b]naphtho[2,3-d]thiophen-11-yl)-phenoxyl]-acetic acid], the pIC50 on Human recombinant PTP1B (read-out: IC50) was 5.89. Besides, the “% Change from Control” value in assay [1] is -97.10%.

In the case of `COc1c(Br)cc(-c2c3ccccc3c(Br)c3sc4ccccc4c23)cc1O[C@H](Cc1ccccc1)C(=O)O` [Example 196, (R)-2-[3-Bromo-5-(6-bromo-benzo[b]naphtho[2,3-d]thiophen-11-yl)-2-methoxy-phenoxy]-3-phenyl-propionic acid], the pIC50 at Human recombinant PTP1B (read-out: IC50) is 6.76. Also, the “% Change from Control” value in assay [1] is reported as -80.08%.

Regarding `O=C(O)[C@H](Oc1c(Br)cc(-c2c3ccccc3c(Br)c3sc4ccccc4c23)cc1Br)c1ccccc1` [Example 142, (R)-[2,6-Dibromo-4-(6-bromo-benzo[b]naphtho[2,3-d]thiophen-11-yl)-phenoxy]-phenyl-acetic acid], the pIC50 at Human recombinant PTP1B (read-out: IC50) is 6.99. For the same molecule, in assay [1], the “% Change from Control” value was -104.68%.

As for `O=C(O)[C@@H](CCN1C(=O)c2ccccc2C1=O)Oc1ccc(-c2c3ccccc3cc3sc4ccccc4c23)cc1` [Example 148], at Human recombinant PTP1B (read-out: IC50), the pIC50 is 5.91. For the same molecule, in assay [1], the “% Change from Control” value is -82.62%.

On to `N#C[C@@H](Cc1ccccc1)Oc1c(Br)cc(-c2c3ccccc3c(Br)c3sc4ccccc4c23)cc1Br` [Example 170, (R)-2-[2,6-Dibromo-4-(6-bromo-benzo[b]naphtho[2,3-d]thiophen-11-yl)-phenoxy]-3-phenyl-propionitrile], for which, at Human recombinant PTP1B (read-out: IC50), the pIC50 was 6.22. The “% Change from Control” value in assay [1] is listed as -18.79%.

As to `CN(C)CCSc1c2ccccc2c(-c2cc(Br)c(O[C@H](Cc3ccccc3)C(=O)O)c(Br)c2)c2c1sc1ccccc12` [Example 133, (R)-2-{2,6-Dibromo-4-[6-(2-dimethylamino-ethylsulfanyl)-benzo[b]naphtho[2,3-d]thiophen-11-yl]-phenoxy}-3-phenyl-propionic acid], the pIC50 on Human recombinant PTP1B (read-out: IC50) is 6.30. Further, the “% Change from Control” value in assay [1] is -27.89%.

Regarding `Oc1c(Br)cc(-c2c3ccccc3c(Cl)c3sc4ccccc4c23)cc1Br` [Example 60, 2,6-Dibromo-4-(6-chloro-benzo[b]naphtho[2,3-d]thiophen-11-yl)-phenol], the pIC50 at Human recombinant PTP1B (read-out: IC50) was 6.89. For the same molecule, in assay [1], the “% Change from Control” value is given as -25.07%.

Turning to `O=C(O)C(Cc1cccnc1)Oc1c(Br)cc(-c2c3ccccc3c(Br)c3sc4ccccc4c23)cc1Br` (centres unmarked) [Example 137, 2-[2,6-Dibromo-4-(6-bromo-benzo[b]naphtho[2,3-d]thiophen-11-yl)-phenoxy]-3-pyridin-3-yl-propionic acid], at Human recombinant PTP1B (read-out: IC50), the pIC50 was 6.47. The “% Change from Control” value in assay [1] is reported as -64.92%.

As to `O=C(O)C(Cc1ccc2ccccc2c1)Oc1c(Br)cc(-c2c3ccccc3c(Br)c3sc4ccccc4c23)cc1Br` (centres unmarked) [Example 156, 2-[2,6-Dibromo-4-(6-bromo-benzo[b]naphtho[2,3-d]thiophen-11-yl)-phenoxy]-3-naphthalen-2yl-propionic acid], the pIC50 on Human recombinant PTP1B (read-out: IC50) was 7.59. In addition, in assay [1], the “% Change from Control” value is on record as -71.12%.

With `N#Cc1cc(-c2c3ccccc3cc3sc4ccccc4c23)ccc1OCC(=O)O` [Example 82, [(4-benzo[b]naphtho[2,3-d]thiophen-11-yl)-2-cyano-phenoxy]-acetic acid], on Human recombinant PTP1B (read-out: IC50), the pIC50 was 5.70. In assay [1], the “% Change from Control” value was -39.80%.

Consider `O=C(O)[C@H](CCc1ccccc1)Oc1c(Br)cc(-c2c3ccccc3c(Br)c3sc4ccccc4c23)cc1Br` [Example 118], for which the pIC50 at Human recombinant PTP1B (read-out: IC50) was 7.51. Further, in assay [1], the “% Change from Control” value was -82.00%.

Regarding `COc1c2ccccc2c(-c2cc(Br)c(O)c(Br)c2)c2c1sc1ccccc12` [Example 63], at Human recombinant PTP1B (read-out: IC50), the pIC50 was 6.04. In assay [1], the “% Change from Control” value is recorded as -47.53%.

Consider `Oc1ccc(-c2c3ccccc3c(Br)c3sc4ccccc4c23)cc1` [Example 41, 4-(6-Bromo-benzo[b]naphtho[2,3-d]thiophen-11-yl)-phenol], for which the pIC50 at Human recombinant PTP1B (read-out: IC50) was 5.97. For the same molecule, the “% Change from Control” value in assay [1] is recorded as -39.32%.

For the molecule `C[C@@H](Oc1c(I)cc(-c2c3ccccc3cc3sc4ccccc4c23)cc1I)C(=O)O` [Example 132, (R)-2-(4-Benzo[b]naphtho[2,3-d]thiophen-11-yl-2,6-diiodo-phenoxy)-propionicacid], the pIC50 at Human recombinant PTP1B (read-out: IC50) was 6.51. In assay [1], the “% Change from Control” value is -49.27%.

As for `CC(C)(Oc1c(Br)cc(-c2c3ccccc3c(Br)c3sc4ccccc4c23)cc1Br)C(=O)O` [Example 178, 2-[2,6-Dibromo-4-(6-bromo-benzo[b]naphtho[2,3-d]thiophen-11-yl)-phenoxy]-2-methyl-propionic acid], the pIC50 at Human recombinant PTP1B (read-out: IC50) was 6.32. For the same molecule, in assay [1], the “% Change from Control” value is on record as -42.41%.

As to `N#Cc1c2ccccc2c(-c2cc(Br)c(O)c(Br)c2)c2c1sc1ccccc12` [Example 58, 11-(3,5-Dibromo-4-hydroxy-phenyl)-benzo[b]naphtho[2,3-d]thiophene-6-carbonitrile], the pIC50 on Human recombinant PTP1B (read-out: IC50) is 6.00. The “% Change from Control” value in assay [1] is -43.32%.

Turning to `Oc1c(F)ccc(-c2c3ccccc3c(Br)c3sc4ccccc4c23)c1F` [Example 200, 3-(6-Bromo-benzo[b]naphtho[2,3-d]thiophen-11-yl)-2,6 difluoro-phenol], on Human recombinant PTP1B (read-out: IC50), the pIC50 was 5.93. Besides, the “% Change from Control” value in assay [1] is reported as -50.62%.

For the molecule `N#Cc1cc(-c2c3ccccc3cc3sc4ccccc4c23)cc(C#N)c1OCC(=O)O` [Example 81, [(4-Benzo[b]naphtho[2,3-d]thiophen-11-yl)-2,6-dicyano-phenoxy]-acetic acid], the pIC50 on Human recombinant PTP1B (read-out: IC50) is 5.70. For the same molecule, in assay [1], the “% Change from Control” value was -47.69%.

Regarding `COc1c(O)cc(-c2c3ccccc3c(Br)c3sc4ccccc4c23)cc1Br` [Example 195, 3-Bromo-5-(6-bromo-benzo[b]naphtho[2,3-d]thiophen-11-yl)-2-methoxy-phenol], at Human recombinant PTP1B (read-out: IC50), the pIC50 was 6.05. In addition, the “% Change from Control” value in assay [1] is given as -29.34%.

As for `NC(=O)COc1c(Br)cc(-c2c3ccccc3c(Br)c3sc4ccccc4c23)cc1Br` [Example 165], on Human recombinant PTP1B (read-out: IC50), the pIC50 is 6.18. Moreover, the “% Change from Control” value in assay [1] was -3.12%.

Regarding `Oc1ccc(-c2c3ccccc3c(Br)c3sc4ccccc4c23)cc1O` [Example 43, 4-(6-bromo-benzo[b]naphtho[2,3-d]thiophen-11-yl)-benzene-1,2-diol], the pIC50 on Human recombinant PTP1B (read-out: IC50) was 6.72. Also, the “% Change from Control” value in assay [1] was -14.62%.

For `Oc1ccc(-c2c3ccccc3cc3sc4ccccc4c23)cc1O` [Example 18, 4-(Benzo[b]naphtho[2,3-d]thiophen-11-yl)-benzene-1,2-diol], the pIC50 at Human recombinant PTP1B (read-out: IC50) is 6.26. Further, in assay [1], the “% Change from Control” value is listed as -15.22%.

With `O=C(O)[C@H](Cc1ccccc1)Oc1ccc(-c2c3ccccc3c(Br)c3sc4ccccc4c23)cc1` [Example 114, (S)-2-[4-(6-bromo-benzo[b]naphtho[2,3-d]thiophen-11-yl)-phenoxy]-3-phenyl-propionic acid], the pIC50 on Human recombinant PTP1B (read-out: IC50) was 6.23. In assay [1], the “% Change from Control” value is on record as -68.03%.

As to `N#CCCNC(=O)[C@@H](Cc1ccccc1)Oc1c(Br)cc(-c2c3ccccc3c(Br)c3sc4ccccc4c23)cc1Br` [Example 168], the pIC50 on Human recombinant PTP1B (read-out: IC50) is 6.00. For the same molecule, in assay [1], the “% Change from Control” value is given as -17.85%.

Regarding `O=C(O)[C@@H](Cc1ccccc1)Oc1c(Br)cc(-c2c3ccccc3c(OCc3ccccc3)c3sc4ccccc4c23)cc1Br` [Example 184, (R)-2-[4-(6-Benzyloxy-benzo[b]naphtho[2,3-d]thiophen-11-yl]-2-6-dibromo-phenoxy}-3-phenyl-propionic acid], the pIC50 on Human recombinant PTP1B (read-out: IC50) is 7.35. Also, the “% Change from Control” value in assay [1] is listed as -46.44%.

In the case of `Oc1cc(-c2c3ccccc3c(Br)c3sc4ccccc4c23)ccc1Br` [Example 68, 2-Bromo-5-(6-bromo-benzo[b]naphtho[2,3-d]thiophen-11-yl)-phenol], the pIC50 at Human recombinant PTP1B (read-out: IC50) was 5.99. Moreover, the “% Change from Control” value in assay [1] is on record as -26.32%.

On to `C[C@H](CC(=O)O)Oc1c(Br)cc(-c2c3ccccc3c(Br)c3sc4ccccc4c23)cc1Br` [Example 180], for which the pIC50 on Human recombinant PTP1B (read-out: IC50) was 6.42. For the same molecule, the “% Change from Control” value in assay [1] is -50.64%.

On to `O=P(O)(O)Oc1c(Br)cc(-c2c3ccccc3c(Br)c3sc4ccccc4c23)cc1Br` [Example 177, Phosphoric acid Mono-[2,6-dibromo-4-(6-bromo-benzo[b]naphtho[2,3-d]thiophen-11-yl)-phenyl]ester], for which the pIC50 on Human recombinant PTP1B is 5.97. The “% Change from Control” value in assay [1] is reported as -69.35%.

For the molecule `O=C(O)C[C@@H](Oc1c(Br)cc(-c2c3ccccc3c(Br)c3sc4ccccc4c23)cc1Br)C(=O)O` [Example 152, (R)-2-[2,6-Dibromo-4-(6-bromo-benzo[b]naphtho[2,3-d]thiophen-11-yl)-phenoxy]-succinic acid], the pIC50 on Human recombinant PTP1B (read-out: IC50) was 6.00. Further, the “% Change from Control” value in assay [1] is given as -95.22%.
